The nature of data set [1]: Stability of the analytes in beagle plasma QC samples under different storage conditions. The class given is physicochemical, beagle dog. Particulars: n = 6; for Stability (% RE) Long-Term: 2 weeks at −80 °C; for Stability (% RE) Short-Term: 4 h at ambient temperature; for Stability (% RE) Freeze-Thaw: three freeze (−80 °C)-thaw cycles; for Stability (% RE) Post-Preparative: 12 h after sample preparation at 4 °C. The protocol: As illustrated in Table 4. The stability of QC samples at three evaluated concentrations contained low, medium and high under different stored conditions was assessed on the basis of peak areas in comparison with freshly prepared QC sample.
(§1) The stability of the fourteen analytes in beagle dogs investigated by analyzing QC samples of each analyte at three QC levels (LQC, MQC and HQC) and each level contained six replicates. The short-term stability was assessed during storage for 4 h at ambient temperature. The long-term stability was determined after the QC samples had been stored for 2 weeks at −80 °C. The freeze-thaw stability was determined after three freeze at −80 °C and thaw cycles. and post-preparative stability was during storage for 12 h after sample preparation at 4 °C. The room temperature stability for stock solution was determined after storing the sample at 25 °C for 24 h. A series of concentrations of stability testing QC samples was gained by the calibration curve which was established from freshly prepared standard samples.

A short description of data set [2]: Room temperature stability of stock solution. The class given is physicochemical. Particulars: 25 °C for 24 h, n = 6. The protocol:
as §1

A further data set can be described thus: in vivo. Particulars: male, beagle, dog, po, 0.12 g/kg.
A short description of data set [3]: Pharmacokinetic study in beagle dogs after oral administration of C. bungeana extract (UHPLC-MS/MS of plasma). Particulars: for Shape of plasma concentration-time profile / Time of first peak of plasma concentration-time profile / Time of second peak of plasma concentration-time profile: beagle dog plasma; for Shape of plasma concentration-time profile: oral C. bungeana extract 0.12 g/kg; for Time of first peak of plasma concentration-time profile / Time of second peak of plasma concentration-time profile: oral C. bungeana extract, post-dose; for AUC(0-inf) / AUC(0-t) / Cmax / half-life / Tmax: male, beagle, dog, plasma, po, 0.12 g/kg.
Protocol: (§2) The developed UHPLC-MS/MS method was employed to determine the pharmacokinetics of the fourteen components in C. bungeana after a single oral administration of 0.12 g/kg (equivalent to 1180.8 µg/kg A, 100.8 µg/kg B, 172.8 µg/kg C, 194.4 µg/kg D, 147.6 µg/kg E, 291.6 µg/kg F, 7.2 µg/kg G, 64.8 µg/kg H, 10.8 µg/kg I, 435.6 µg/kg J, 7.2 µg/kg K, 2851.2 µg/kg L, 694.8 µg/kg M, 928.8µg/kg N) to six beagle dogs. […] According to the Meeh-Rubn method, we established a final oral dosage of 0.12 g/kg in dogs. The plasma concentrations of the fourteen components at each time point were detected and the data gained from six beagle dogs were averaged.
(§3) Before the experiment, the beagle dogs were fasted for 12 h but given water during the research period. Blood (300 µL) was collected from the forelimb vein plexus at a few specific time points (0.083, 0.25, 0.5, 0.75 and 1, 2, 3, 4, 6, 8, 12, 24 h) after the oral administration of the extract of C. bungeana (0.12 g/kg). After centrifugation at 13,000 rpm for 10 min, the plasma was collected immediately and maintained at −80 °C until sample analysis.
(§4) Using a liquid-liquid extraction method, 100 µL of methanol and 50 µL of IS (bifendate) were added to a beagle dog plasma sample (100 µL) followed by vortex for 30 s. Then 3 mL of aether was accurately added and the mixture was vortexed for 60 s. After this step, the samples were put into a centrifuge (XiangYi Technologies, Changsha, Hunan, China). The organic supernatant was pipetted into clean glass tubes individually after centrifugation 3800 rpm for 6 min. The upper organic layer was removed and evaporated to dryness at 40 °C under a stream of nitrogen. The residue was then redissolved with 100 µL of mobile phase (28% acetonitrile), vortexed for 30 s and filtered by a 0.22 µm membrane. A 10 µL aliquot of the solution was injected into the UHPLC-MS/MS system for analysis.
(§5) Concentrations of fourteen alkaloids in beagle dog blood were calculated employing the Excel program (Microsoft Corp., Redmond, WA, USA). Pharmacokinetic parameters were calculated using non-compartmental methods. The elimination rate constant (Ke) was calculated employing the linear regression of the terminal points in a semi-log plot of the plasma concentration against time. The elimination half-life (t1/2) was calculated using the formula. t1/2 = 0.693/Ke(1)
(§6) The area under the blood concentration versus time curve up to the last quantifiable time point (AUC0→t) was calculated by the linear trapezoidal rule. The area under the plasma concentration –time curve to time infinity (AUC0→∞) was calculated as follows: AUC0→∞ = AUC0→t + Ct/Ke(2)
(§7) The maximum observed blood concentration (Cmax) and the time to reach maximum observed blood concentration (Tmax) were obtained directly from the concentration-time curve.

Protocol for in vivo: as §2, §3, §4, §5, §6, §7

The AUC(0-inf) is total exposure, with the tail of the curve extrapolated. Read a high AUC(0-inf) as more exposure. Usually AUC(0-t) stands for the area under the concentration-time curve up to a stated or last time point. Low readings indicate less exposure, high ones more exposure. By Cmax is commonly meant the maximum level reached in the sampled fluid or tissue. One may read the Tmax as the time from dosing to the highest level. The half-life is the time needed for the level to fall by half in the phase considered. The low end stands for fast loss, the high end for slow loss. `C[n+]1cc2c3c(ccc2c2ccc4cc5c(cc4c21)OCO5)OCO3` [Sanguinarine, sanguinarine]: the “Stability (% RE) Long-Term” value in data set [1] (high QC in beagle plasma) came to 11.08 % RE; in data set [1] (low QC in beagle plasma), 13.35 % RE; in data set [1] (medium QC in beagle plasma) it was 7.46 % RE. Besides, the “Stability (% RE) Short-Term” value in data set [1] (high QC in beagle plasma) was 9.29 % RE; in data set [1] (low QC in beagle plasma), 12.41 % RE; in data set [1] (medium QC in beagle plasma), −5.50 % RE. The “Stability (% RE) Freeze-Thaw” value in data set [1] (high QC in beagle plasma) worked out at 12.22 % RE; in data set [1] (low QC in beagle plasma) it was 11.45 % RE; in data set [1] (medium QC in beagle plasma), 8.78 % RE. Also, the results for the “Stability (% RE) Post-Preparative” value in data set [1] (high QC), in data set [1] (low QC) and in data set [1] (medium QC) were 10.40 % RE, 7.77 % RE and −2.41 % RE, respectively. The “Stability (% RE) Room Temperature for Stock-Solution” value (from here on “Stability (% RE) Room Temperature”) is recorded as −4.02 % RE in data set [2] (high QC level), 2.48 % RE in data set [2] (low QC level) and 3.20 % RE in data set [2] (medium QC level). In “in vivo”, this compound returned an AUC(0-inf) of 1350 ± 109 ng·h/mL. Moreover, the AUC(0-t) in the data set “in vivo” came to 1260 ± 107 ng·h/mL. For the same compound, the Cmax in the data set “in vivo” was determined as 533 ± 29.1 ng/mL. The Tmax in the data set “in vivo” came to 0.96 ± 0.1 h. Moreover, in the data set “in vivo”, the half-life is 5.63 ± 1.36 h.
In the case of `c1c2c(cc3c1OCO3)-c1cc3ccc4c(c3c[n+]1CC2)OCO4` [Coptisine, coptisine], in data set [1] (high QC in beagle plasma), the “Stability (% RE) Long-Term” value turned out to be 13.69 % RE, the “Stability (% RE) Short-Term” value is 7.57 % RE and the “Stability (% RE) Freeze-Thaw” value came out at 12.83 % RE. Further, in data set [1] (low QC in beagle plasma), the “Stability (% RE) Long-Term” value is reported as 5.48 % RE, the “Stability (% RE) Short-Term” value was determined as 10.66 % RE and the “Stability (% RE) Freeze-Thaw” value is given as 10.21 % RE. In addition, in data set [1] (medium QC in beagle plasma), the “Stability (% RE) Long-Term” value was 6.73 % RE, the “Stability (% RE) Short-Term” value is given as −3.05 % RE and the “Stability (% RE) Freeze-Thaw” value is given as 8.93 % RE. In “in vivo”, the AUC(0-inf) is 6030 ± 194 ng·h/mL, the AUC(0-t) was determined as 5960 ± 205 ng·h/mL, the concentration peaked (Cmax) at 2260 ± 256 ng/mL and the Tmax was found to be 0.92 ± 0.13 h. The same compound gave a half-life in “in vivo” of 2.48 ± 0.33 h.
Take `COc1cc2c(cc1O)CC[n+]1cc3c(OC)c(OC)ccc3cc1-2` [Jateorhizine, jateorhizine]: in data set [1] (high QC in beagle plasma), the “Stability (% RE) Long-Term” value turned out to be 8.26 % RE, the “Stability (% RE) Short-Term” value stood at 6.64 % RE and the “Stability (% RE) Freeze-Thaw” value is recorded as 6.24 % RE. For the same compound, the “Stability (% RE) Post-Preparative” value in data set [1] (high QC) is 8.41 % RE. For the same compound, in data set [1] (low QC in beagle plasma), the “Stability (% RE) Long-Term” value amounted to 12.90 % RE, the “Stability (% RE) Short-Term” value is given as 7.31 % RE and the “Stability (% RE) Freeze-Thaw” value is reported as 10.65 % RE. Further, the “Stability (% RE) Post-Preparative” value in data set [1] (low QC) came out at 6.63 % RE. Moreover, in data set [1] (medium QC in beagle plasma), the “Stability (% RE) Long-Term” value was found to be 10.30 % RE, the “Stability (% RE) Short-Term” value came to 3.05 % RE and the “Stability (% RE) Freeze-Thaw” value worked out at 8.68 % RE. Besides, the “Stability (% RE) Post-Preparative” value in data set [1] (medium QC) turned out to be 8.51 % RE. For the same compound, the “Stability (% RE) Room Temperature” value in data set [2] (high QC level) was 1.32 % RE. Further, the “Stability (% RE) Room Temperature” value in data set [2] (low QC level) came to 1.16 % RE. In data set [2] (medium QC level), the “Stability (% RE) Room Temperature” value is listed as −3.58 % RE. In data set [3], the “Shape of plasma concentration-time profile” value was “conspicuous bimodal phenomenon”, the “Time of first peak of plasma concentration-time profile” value lay within 0.5 to 1 h, the “Time of second peak of plasma concentration-time profile” value was 4 to 8 h and the AUC(0-inf) worked out at 163 ± 11 ng·h/mL. In data set [3], this compound had an AUC(0-t) of 151 ± 6.42 ng·h/mL, a Cmax of 74.2 ± 8.71 ng/mL and a half-life of 6.29 ± 1.09 h.
Take `CC(=O)O[C@H]1Cc2cc3c(cc2[C@H]2N(C)Cc4c(ccc5c4OCO5)[C@@]12C)OCO3` [Acetylcorynoline, acetylcorynoline]: in data set [1] (high QC in beagle plasma), the “Stability (% RE) Long-Term” value is recorded as 7.32 % RE, the “Stability (% RE) Short-Term” value was −4.81 % RE and the “Stability (% RE) Freeze-Thaw” value was −4.20 % RE. Moreover, the “Stability (% RE) Post-Preparative” value in data set [1] (high QC) came to 2.05 % RE. In addition, in data set [1] (low QC in beagle plasma), the “Stability (% RE) Long-Term” value came to 8.62 % RE, the “Stability (% RE) Short-Term” value was determined as 6.47 % RE and the “Stability (% RE) Freeze-Thaw” value worked out at 5.17 % RE. Moreover, the “Stability (% RE) Post-Preparative” value in data set [1] (low QC) is on record as 12.65 % RE. Also, in data set [1] (medium QC in beagle plasma), the “Stability (% RE) Long-Term” value worked out at 7.56 % RE, the “Stability (% RE) Short-Term” value is listed as 6.74 % RE and the “Stability (% RE) Freeze-Thaw” value is on record as −3.75 % RE. In addition, the “Stability (% RE) Post-Preparative” value in data set [1] (medium QC) was −3.44 % RE. Moreover, in data set [2] (high QC level), the “Stability (% RE) Room Temperature” value was found to be 3.69 % RE. The “Stability (% RE) Room Temperature” value in data set [2] (low QC level) is listed as −1.83 % RE. Besides, the “Stability (% RE) Room Temperature” value in data set [2] (medium QC level) came out at 2.57 % RE. In data set [3], the AUC(0-inf) was determined as 244 ± 26.2 ng·h/mL, the AUC(0-t) came out at 230 ± 18.6 ng·h/mL, the Cmax is 107 ± 4.63 ng/mL and the Tmax came to 0.58 ± 0.13 h. The half-life in data set [3] is 5.52 ± 0.93 h.
Turning to `COc1cc2c(cc1O)-c1cc3ccc(OC)c(OC)c3c[n+]1CC2` [Columbamine, columbamine], in data set [1] (high QC in beagle plasma), the “Stability (% RE) Long-Term” value stood at 10.24 % RE, the “Stability (% RE) Short-Term” value worked out at 9.67 % RE and the “Stability (% RE) Freeze-Thaw” value was 5.60 % RE. Moreover, the “Stability (% RE) Post-Preparative” value in data set [1] (high QC) turned out to be 12.44 % RE. In data set [1] (low QC in beagle plasma), the “Stability (% RE) Long-Term” value was 9.66 % RE, the “Stability (% RE) Short-Term” value was 8.47 % RE and the “Stability (% RE) Freeze-Thaw” value was 11.50 % RE. The “Stability (% RE) Post-Preparative” value in data set [1] (low QC) worked out at 8.80 % RE. In data set [1] (medium QC in beagle plasma), the “Stability (% RE) Long-Term” value is reported as 11.77 % RE, the “Stability (% RE) Short-Term” value is 4.02 % RE and the “Stability (% RE) Freeze-Thaw” value was determined as 12.73 % RE. The “Stability (% RE) Post-Preparative” value in data set [1] (medium QC) is 5.50 % RE. In addition, in data set [2] (high QC level), the “Stability (% RE) Room Temperature” value is on record as 2.50 % RE. Besides, in data set [2] (low QC level), the “Stability (% RE) Room Temperature” value is 4.02 % RE. Also, in data set [2] (medium QC level), the “Stability (% RE) Room Temperature” value was 1.62 % RE. Further, in data set [3], the “Shape of plasma concentration-time profile” value is listed as “conspicuous bimodal phenomenon”, the “Time of first peak of plasma concentration-time profile” value was 0.5 to 1 h, the “Time of second peak of plasma concentration-time profile” value was 4 to 8 h and the AUC(0-inf) is 7030 ± 290 ng·h/mL. For the same compound, in data set [3], the AUC(0-t) was 6830 ± 170 ng·h/mL, the Cmax is 2130 ± 196 ng/mL, the Tmax was 0.92 ± 0.13 h and the half-life is 2.87 ± 0.42 h.
As to `CN1C(=O)c2c(ccc3c2OCO3)C2(C)C(O)Cc3cc4c(cc3C12)OCO4` (centres unmarked) [8-oxocorynoline], the entries for the “Stability (% RE) Long-Term” value in data set [1] (high QC in beagle plasma), in data set [1] (low QC in beagle plasma) and in data set [1] (medium QC in beagle plasma) were 3.13 % RE, 3.08 % RE and 5.35 % RE, respectively. The “Stability (% RE) Short-Term” value in data set [1] (high QC in beagle plasma) is given as −2.89 % RE; in data set [1] (low QC in beagle plasma), 1.62 % RE; in data set [1] (medium QC in beagle plasma), −3.92 % RE. Moreover, the entries for the “Stability (% RE) Freeze-Thaw” value in data set [1] (high QC in beagle plasma), in data set [1] (low QC in beagle plasma) and in data set [1] (medium QC in beagle plasma) were −3.58 % RE, 1.18 % RE and 9.69 % RE, respectively. Further, the “Stability (% RE) Post-Preparative” value in data set [1] (high QC) was determined as 10.60 % RE; in data set [1] (low QC), 3.71 % RE; in data set [1] (medium QC), 10.01 % RE. Further, the “Stability (% RE) Room Temperature” value in data set [2] (high QC level) is given as 2.30 % RE; in data set [2] (low QC level) it was −4.08 % RE; in data set [2] (medium QC level), 3.77 % RE. This compound registered an AUC(0-inf) in data set [3] of 284 ± 62.4 ng·h/mL. In data set [3], this compound displayed an AUC(0-t) of 260 ± 64.2 ng·h/mL. Further, the concentration in data set [3] peaked (Cmax) at 94.5 ± 22.8 ng/mL. Further, the Tmax in data set [3] is 0.92 ± 0.13 h. In data set [3], the half-life is 6.98 ± 1.76 h.

For the origin of these results see paper PMC6222357, “Liquid Chromatography-Tandem Mass Spectrometry Simultaneous Determination and Pharmacokinetic Study of Fourteen Alkaloid Components in Dog Plasma after Oral Administration of Corydalis bungeana Turcz Extract” (Molecules : A Journal of Synthetic Chemistry and Natural …, 2018).
